Source: the CheMixHub ionic liquid set
Several values for one entry are separate records, joined by “and”; a condition that tells them apart may be missing. Identical values can stand only once.

Assay: xn = mol fraction of the nth substance listed

CCCCCC(=O)[O-].C[NH2+]Cc1ccccc1 + CN(C)C=O
viscosity [mPa·s], 101 kPa
Conditions	293.15 K	298.15 K	303.15 K	308.15 K	313.15 K	318.15 K	323.15 K	328.15 K
x1 = 0.004888	0.957	0.916	0.879	0.846	0.817	0.791	0.767	0.746
x1 = 0.008422	0.969	0.926	0.887	0.854	0.824	0.797	0.772	0.75
x1 = 0.0141	0.992	0.946	0.905	0.869	0.837	0.809	0.784	0.76
x1 = 0.01792	1.009	0.961	0.918	0.881	0.847	0.818	0.791	0.767
x1 = 0.02131	1.026	0.975	0.93	0.891	0.857	0.826	0.798	0.773
x1 = 0.02717	1.052	0.998	0.95	0.909	0.873	0.84	0.812	0.786
x1 = 0.03049	1.072	1.016	0.966	0.923	0.884	0.85	0.82	0.793
x1 = 0.03458	1.099	1.038	0.985	0.94	0.899	0.863	0.831	0.803

CC1CCC(=O)O1 (stereo unspecified) + CCCC[n+]1ccn(C)c1.O=S(=O)([N-]S(=O)(=O)C(F)(F)F)C(F)(F)F
electrical conductivity [S/m], 100 kPa, frequency 0.01 MHz
Conditions	293.15 K	298.15 K	303.15 K	308.15 K	313.15 K	318.15 K	323.15 K
x2 = 0.0505	0.666	0.719	0.785	0.849	0.914	0.986	1.05
x2 = 0.1001	1.01	1.11	1.21	1.31	1.42	1.54	1.67
x2 = 0.1492	1.11	1.21	1.32	1.45	1.58	1.73	1.87
x2 = 0.1998	1.1	1.21	1.34	1.48	1.62	1.77	1.92
x2 = 0.3008	0.993	1.1	1.22	1.36	1.5	1.64	1.79
x2 = 0.4031	0.816	0.913	1.02	1.13	1.25	1.38	1.51
x2 = 0.5048	0.677	0.762	0.854	0.96	1.07	1.19	1.31
x2 = 0.6031	0.561	0.636	0.72	0.818	0.918	1.03	1.16
x2 = 0.6973	0.476	0.544	0.623	0.712	0.81	0.918	1.03
x2 = 0.7994	0.394	0.457	0.531	0.612	0.703	0.807	0.919
x2 = 0.8711	0.364	0.425	0.498	0.575	0.663	0.763	0.869

OCCN(CCO)CCO + CCCC[n+]1ccn(C)c1.F[B-](F)(F)F
Conditions	viscosity [mPa·s]
303.15 K, 101 kPa, x1 = 1	400

CCCCCCCCCCCCCCCC[N+](C)(C)C.[Br-] + CCCCCCCCCCCCOS(=O)(=O)[O-].[Na+] + O
298.15 K, 101 kPa, frequency 0.001 MHz
Conditions	electrical conductivity
x2 = 0, x1 = 3e-08	0.000332 S/m
x2 = 0, x1 = 1.09e-06	0.001 S/m
x2 = 0, x1 = 2.34e-06	0.00165 S/m
x2 = 0, x1 = 3.39e-06	0.00255 S/m
x2 = 0, x1 = 4.43e-06	0.00305 S/m
x2 = 0, x1 = 5.57e-06	0.00366 S/m
x2 = 0, x1 = 6.72e-06	0.00441 S/m
x2 = 0, x1 = 7.97e-06	0.00511 S/m
x2 = 0, x1 = 8.91e-06	0.00577 S/m
x2 = 0, x1 = 1.12e-05	0.00697 S/m
x2 = 0, x1 = 1.213e-05	0.00757 S/m
x2 = 0, x1 = 1.307e-05	0.00823 S/m
x2 = 0, x1 = 1.411e-05	0.00873 S/m
x2 = 0, x1 = 1.526e-05	0.00943 S/m
x2 = 0, x1 = 1.63e-05	0.00978 S/m
x2 = 0, x1 = 1.734e-05	0.0102 S/m
x2 = 0, x1 = 1.922e-05	0.0105 S/m
x2 = 0, x1 = 1.995e-05	0.0108 S/m
x2 = 0, x1 = 2.172e-05	0.0111 S/m
x2 = 0, x1 = 2.276e-05	0.0113 S/m
x2 = 0, x1 = 2.443e-05	0.0115 S/m
x2 = 0, x1 = 2.599e-05	0.0117 S/m
x2 = 0, x1 = 2.734e-05	0.012 S/m
x2 = 0, x1 = 2.859e-05	0.0122 S/m
x2 = 1e-08, x1 = 1e-08	0.000339 S/m and 0.000404 S/m
x2 = 1e-08, x1 = 3e-08	0.000436 S/m
x2 = 1e-08, x1 = 4e-08	0.000343 S/m
x2 = 1e-08, x1 = 1.2e-07	0.000394 S/m
x2 = 2e-08, x1 = 2e-08	0.000534 S/m
x2 = 2e-08, x1 = 3e-08	0.000686 S/m and 0.000765 S/m
x2 = 2e-08, x1 = 4e-08	0.000522 S/m and 0.000583 S/m and 0.000801 S/m
x2 = 2e-08, x1 = 5e-08	0.000647 S/m and 0.000697 S/m
x2 = 2e-08, x1 = 7e-08	0.000383 S/m
x2 = 2e-08, x1 = 8e-08	0.000422 S/m
x2 = 2e-08, x1 = 1.5e-07	0.000412 S/m
x2 = 2e-08, x1 = 1.9e-07	0.000438 S/m
x2 = 3e-08, x1 = 1e-08	0.000594 S/m
x2 = 3e-08, x1 = 4e-08	0.000836 S/m
x2 = 3e-08, x1 = 5e-08	0.000883 S/m
x2 = 3e-08, x1 = 6e-08	0.000733 S/m
x2 = 3e-08, x1 = 7e-08	0.000772 S/m
x2 = 3e-08, x1 = 1.1e-07	0.000459 S/m
x2 = 3e-08, x1 = 2.3e-07	0.000467 S/m
x2 = 3e-08, x1 = 3e-07	0.000493 S/m
x2 = 4e-08, x1 = 2e-08	0.000416 S/m and 0.00028 S/m
x2 = 4e-08, x1 = 6e-08	0.000919 S/m
x2 = 4e-08, x1 = 8e-08	0.000812 S/m
x2 = 4e-08, x1 = 1e-07	0.000848 S/m
x2 = 4e-08, x1 = 1.7e-07	0.000541 S/m
x2 = 4e-08, x1 = 3.6e-07	0.000522 S/m
x2 = 5e-08, x1 = 1e-08	0.000679 S/m
x2 = 5e-08, x1 = 7e-08	0.000941 S/m
x2 = 5e-08, x1 = 1.2e-07	0.000887 S/m
x2 = 5e-08, x1 = 4.3e-07	0.000555 S/m
x2 = 6e-08, x1 = 2e-08	0.000797 S/m
x2 = 6e-08, x1 = 6e-08	0.000747 S/m
x2 = 6e-08, x1 = 9e-08	0.000991 S/m
x2 = 6e-08, x1 = 2.4e-07	0.000642 S/m
x2 = 7e-08, x1 = 1.1e-07	0.00101 S/m
x2 = 7e-08, x1 = 1.5e-07	0.000924 S/m
x2 = 7e-08, x1 = 2.9e-07	0.000707 S/m
x2 = 8e-08, x1 = 1e-08	0.000628 S/m
x2 = 8e-08, x1 = 2e-08	0.000891 S/m
x2 = 8e-08, x1 = 3e-08	0.00034 S/m
x2 = 8e-08, x1 = 5e-08	0.00106 S/m
x2 = 8e-08, x1 = 1.9e-07	0.00096 S/m
x2 = 8e-08, x1 = 3.2e-07	0.000765 S/m
x2 = 9e-08, x1 = 6e-08	0.00125 S/m
x2 = 9e-08, x1 = 1.3e-07	0.00105 S/m
x2 = 9e-08, x1 = 3.7e-07	0.000826 S/m
x2 = 1e-07, x1 = 6e-08	0.00139 S/m
x2 = 1e-07, x1 = 1.5e-07	0.00109 S/m
x2 = 1.1e-07, x1 = 7e-08	0.00148 S/m
x2 = 1.1e-07, x1 = 1.1e-07	0.001 S/m
x2 = 1.2e-07, x1 = 3e-08	0.00103 S/m
x2 = 1.2e-07, x1 = 5e-08	0.000383 S/m
x2 = 1.2e-07, x1 = 8e-08	0.00152 S/m
x2 = 1.2e-07, x1 = 1.7e-07	0.00113 S/m
x2 = 1.4e-07, x1 = 1.4e-07	0.00108 S/m
x2 = 1.4e-07, x1 = 2.1e-07	0.00116 S/m
x2 = 1.5e-07, x1 = 4e-08	0.00112 S/m
x2 = 1.5e-07, x1 = 6e-08	0.000443 S/m
x2 = 1.5e-07, x1 = 1e-07	0.00161 S/m
x2 = 1.6e-07, x1 = 2e-08	0.000934 S/m
x2 = 1.6e-07, x1 = 7e-08	0.000477 S/m
x2 = 1.7e-07, x1 = 1.1e-07	0.00167 S/m
x2 = 1.8e-07, x1 = 1.8e-07	0.00116 S/m
x2 = 1.8e-07, x1 = 2.7e-07	0.0012 S/m
x2 = 1.9e-07, x1 = 2e-08	0.00106 S/m
x2 = 2e-07, x1 = 9e-08	0.000571 S/m
x2 = 2e-07, x1 = 1.3e-07	0.00173 S/m
x2 = 2.2e-07, x1 = 5e-08	0.00121 S/m
x2 = 2.2e-07, x1 = 2.2e-07	0.00125 S/m
x2 = 2.3e-07, x1 = 3e-08	0.00115 S/m
x2 = 2.6e-07, x1 = 1.7e-07	0.00178 S/m
x2 = 2.6e-07, x1 = 2.6e-07	0.00135 S/m
x2 = 2.8e-07, x1 = 3e-08	0.00131 S/m
x2 = 3e-07, x1 = 7e-08	0.00125 S/m
x2 = 3e-07, x1 = 1.3e-07	0.000632 S/m
x2 = 3e-07, x1 = 2e-07	0.00186 S/m
x2 = 3e-07, x1 = 3e-07	0.00143 S/m
x2 = 3.1e-07, x1 = 3e-08	0.00138 S/m
x2 = 3.4e-07, x1 = 4e-08	0.00144 S/m
x2 = 3.4e-07, x1 = 3.4e-07	0.00147 S/m
x2 = 3.6e-07, x1 = 4e-08	0.00156 S/m
x2 = 3.7e-07, x1 = 2.4e-07	0.00196 S/m
x2 = 4e-07, x1 = 4e-08	0.00168 S/m
x2 = 4.1e-07, x1 = 1e-07	0.0013 S/m
x2 = 4.1e-07, x1 = 1.8e-07	0.000659 S/m
x2 = 4.1e-07, x1 = 2.7e-07	0.00203 S/m
x2 = 4.6e-07, x1 = 3.1e-07	0.00208 S/m
x2 = 4.7e-07, x1 = 5e-08	0.00179 S/m
x2 = 5.1e-07, x1 = 2.2e-07	0.000678 S/m
x2 = 5.1e-07, x1 = 3.4e-07	0.0022 S/m
x2 = 5.4e-07, x1 = 6e-08	0.0019 S/m
x2 = 5.6e-07, x1 = 3.7e-07	0.00228 S/m
x2 = 5.8e-07, x1 = 1.5e-07	0.00133 S/m
x2 = 6.1e-07, x1 = 7e-08	0.00201 S/m
x2 = 6.6e-07, x1 = 2.8e-07	0.000706 S/m
x2 = 6.7e-07, x1 = 7e-08	0.00214 S/m
x2 = 7.9e-07, x1 = 3.4e-07	0.000733 S/m
x2 = 8.2e-07, x1 = 2e-07	0.00138 S/m
x2 = 9e-07, x1 = 3.9e-07	0.000778 S/m
x2 = 1.05e-06, x1 = 2.6e-07	0.00143 S/m
